Entries after “also recorded” stand apart in the source; their conditions may differ. Structures can show the parent of a compound that is named as a salt.
Assays:
[1] = system: airway smooth muscle (ASM) in tracheal rings from OVA sensitized/challenged mice; experiment: Inhibition of acetylcholine-induced ASM contraction in tracheal rings (ex vivo myography, 30 min pretreatment); parameters: species or system BALB/c mice; details: for ASM contraction to acetylcholine: isolated compound at 6.0 μg/ml, FIG. 6A/6B; for ASM contraction to acetylcholine / Ach-induced contraction (10-4 M Ach, percent of 60 mM KCL): 30 min pretreatment; for Ach-induced contraction (10-4 M Ach, percent of 60 mM KCL): 10 μg/ml (Matrine 40 μM, Sophocarpine 40 μM, Oxymatrine 37 μM); for Ach-induced contraction (10-4 M Ach, percent of 60 mM KCL) / relative potency among the matrine type alkaloids: FIGS. 12, 13; for relative potency among the matrine type alkaloids: 10 μg/ml
Experimental: To determine which herbal constituents in ASHMI™ have a direct inhibitory effect on ASM contraction, an asthmatic mouse model was induced by ovalbumin (OVA) sensitization and challenge as described previously (Zhang et al., 2010). Tracheal rings from asthmatic mice were treated with an aq. extract of ASHMI™ (100 μg/ml), or individual herb aq. extracts, G. lucidum (35 μg/ml), S. flavescens (45 μg/ml) and G. uralenisis (20 μg/ml), for 30 min prior to ex vivo acetylcholine provocation. The ASHMI™ concentration was based on our previous publication (Zhang et al., 2010). Concentrations of individual herb extracts were equivalent to their individual concentrations in ASHMI™.
Balb/c mice were sensitized by intraperitoneal (i.p.) injection of 200 μg OVA plus 2 mg of aluminum hydroxide (alum) in 400 μl of PBS on days 0 and 7. Mice were challenged intratracheally (i.t.) with 100 μg of OVA in 50 μl of PBS weekly for 2 weeks (days 14 and 21). Mice were challenged i.t. once daily with 100 μg of OVA (50 μl) on 2 consecutive days (days 28 and 29) 48 hr before sacrifice and tissue harvesting.
Forty-eight hrs after the last i.t. OVA challenge, mice were sacrificed and tracheas were excised and cut into 3 tracheal rings as previously described. Each tracheal ring was attached to a pair of mounting pins in the organ chamber of a Myograph System Model 610M system (AD Instruments, Denver, Colo.) and bathed in a chamber containing physiological salt solution (PSS (In g/L—NaCl: 6.95, KCl: 0.35, MgSO4.7H2O: 0.28, KH2PO4: 0.1561, CaCl2.2H2O: 0.36, NaHCO3: 2.1, EDTA: 0.01, Glucose: 1.09, pH=7.4). All chambers were maintained at 37° C. and were continuously bubbled with 100% 02. The change of tracheal ring tension was recorded by Power Lab Chart recording software (AD Instruments). After incubation at 37° C. for 15 min at baseline tension, passive tension applied to the tracheal ring was adjusted to 1.00 mN. Following stabilization of passive tension, tracheal rings were contracted using 60 mM KCl twice, to assess ASM contractility. Tracheal rings were washed with PSS buffer 3 times and allowed to rest at 1.00 mN for 30 min after each stimulation. The individual compounds as indicated in FIG. 14 were dissolved in DMSO and then re-suspended in PBS (DMSO <0.1%). Each drug was added to the chamber at the concentrations indicated and the pre-incubation time was 30 min. Tracheal rings were then contracted with incremental doses of acetylcholine (from 10^-8 M to 10^-4 M). PBS (vehicle) treatment was used as control.

tracheal tissue (rings) = experiment: Tracheal ring viability: contractile response to KCl after washout; parameters: species or system mouse; details: 10 μg/ml
Experimental: FIG. 12. Representative real time tracing of murine tracheal ring contractions. Rings were first stimulated with 60 mM KCL to assess contractile potential. Compounds (Matrine (40 μM), Oxymatrine (37 μM), sophocarpine (40 μM) or PSS (vehicle) were added 30 minutes prior to stimulation with 10^-4 M Ach. Ring viability was tested 90 minutes after Ach washout.
We first generated a methylene chloride (MC) extract from an aq. extract of S. flavescens to obtain a flavonoid rich extract (designated MC extract, FIG. 2). […] We next generated 5 sub-fractions (MC-F1, 2, 3, 4 and 5) using preparative HPLC and tested each at 6.0 μg/ml. […] The inhibition of ASM contraction by MC-F1 was concentration-dependent (FIG. 4B) and non-toxic as contractile responses to KCl were present after buffer washings (FIG. 4C).
Having observed that Fraction 3 of S. flavescens was a potent inhibitor of Ach-stimulated tracheal contraction we tested major compounds present in this fraction in myography experiments. According to investigations using mass spectrometric techniques, the major compounds identified in SF Fraction 3 were the matrine type alkaloids-Matrine, Oxymatrine and Sophocarpine.

[2] = system: acetylcholine pre-contracted sensitized murine tracheal rings (ASM); experiment: Relaxation of acetylcholine pre-contracted tracheal rings; parameters: species or system mouse; details: for effect of co-incubation with β2-AR antagonist ICI 118,551 on relaxation: FIG. 7A/7B
Experimental: FIGS. 7A-7C. Relaxation effects of trifolirhizin or the β2-AR agonist fenoterol on acetylcholine pre-contracted ASM. (A). The relaxation effect of trifolirhizin on acetylcholine-stimulated tracheal rings with or without ICI 118,551 (ICI). (B). The relaxation effect of the β2-AR agonist fenoterol on acetylcholine-contracted tracheal rings with or without ICI 118,551; Relaxation is expressed as the percent of residual contractile tone remaining at 15 min after trifolirhizin or fenoterol addition. (C). Representative myography tracings of relaxation experiment using fenoterol (upper tracing), PBS control (middle tracing) or trifolirhizin- (lower tracing) treated sensitized mouse tracheal rings (***, p≤0.001 compared to PBS control). Note the magnitude of total relaxation achieved with trifolirhizin compared to the β2-AR agonist fenoterol.
The primary therapy for acute constriction of airway smooth muscle is β2-AR agonists which are inhaled for the acute relaxation of hyperresponsive airway smooth muscle. We performed studies with trifolirhizin to determine whether it could relax pre-contracted airway smooth muscle and how the magnitude of relaxation compared to a classic β2-AR agonist fenoterol. In order to investigate the relaxation effect of trifolirhizin on ASM, we tested this isolated compound on acetylcholine pre-contracted sensitized murine tracheal rings. […] The maximal relaxation was 85% of the initial contractile tone at a trifolirhzin concentration of 20 μg/ml (FIG. 7A). In parallel studies the β2-AR agonist fenoterol only achieved 25% relaxation even at the highest concentration tested (10^-5 M).

[3] = system: airway resistance in response to methacholine; experiment: Airway resistance to nebulized methacholine, forced oscillation technique (Flexivent); format: in vivo, male A/J mice; details: nebulized 25 ul of 60 ug/ml, 15 minutes before nebulized methacholine; N=3; FIG. 15
Experimental: FIG. 15: Airway resistance in male A/J 20 g mice pretreated with nebulization of vehicle (25 ul 0.3% DMSO) or trifolirhizin (25 ul of 60 ug/ml) 15 minutes before nebulized methacholine as measured by the forced oscillation technique (Flexivent, Scireq). N=3.

## COc1ccc(-c2coc3cc(O)ccc3c2=O)cc1O [3′,7-dihydroxy-4′-methoxy-isoflavone]
[1]
  ASM contraction to acetylcholine: had no effect on ASM contraction

## C[C@@H]1C[C@H]2[C@@H]3CCC4=CC(=O)C=C[C@]4(C)[C@@]3(F)[C@@H](O)C[C@]2(C)[C@@]1(O)C(=O)CO [Dexamethasone, dexamethasone, reference compound]
[1]; 10 μM acute pretreatment, FIG. 6D
  acetylcholine-induced ASM contractions: did not inhibit

## O=C1CCC[C@@H]2[C@H]3CCCN4CCC[C@@H](CN12)[C@@H]34 [Matrine]
[1]
  effect of Indomethacin on the suppressive effect on tracheal contractility: inhibited by Indomethacin
  Ach-induced contraction (10-4 M Ach, percent of 60 mM KCL): inhibited Ach-induced contraction
  relative potency among the matrine type alkaloids: most potent; also recorded: more effective than Oxymatrine
Tracheal tissue (rings)
  toxicity to tracheal tissue (response to KCL 90 minutes after washout): did not exhibit toxicity to tracheal tissue

## O=C1CCC[C@@H]2[C@H]3CCC[N+]4([O-])CCC[C@@H](CN12)[C@@H]34 (stereo partly shown) [Oxymatrine]
[1]
  effect of Indomethacin on the suppressive effect on tracheal contractility: inhibited by Indomethacin
  Ach-induced contraction (10-4 M Ach, percent of 60 mM KCL): inhibited Ach-induced contraction
  relative potency among the matrine type alkaloids: weakest inhibitor of contraction

## O=C1C=CC[C@@H]2[C@H]3CCCN4CCC[C@@H](CN12)[C@@H]34 [Sophocarpine]
[1]
  effect of Indomethacin on the suppressive effect on tracheal contractility: inhibited by Indomethacin
  Ach-induced contraction (10-4 M Ach, percent of 60 mM KCL): inhibited Ach-induced contraction
  relative potency among the matrine type alkaloids: more effective than Oxymatrine

## CC(Cc1ccc(O)cc1)NCC(O)c1cc(O)cc(O)c1 (stereo not shown) [fenoterol, fenoterol hydrobromide, reference compound]
[2]
  effect of co-incubation with β2-AR antagonist ICI 118,551 on relaxation: completely blocked
[2]; highest concentration tested (10^-5 M), parallel studies, FIG. 7B
  relaxation achieved: 25%
[2]; increasing time of incubation
  time course of relaxation effect: slowly lost its effect

## OC[C@H]1O[C@@H](Oc2ccc3c(c2)OC[C@H]2c4cc5c(cc4O[C@@H]32)OCO5)[C@H](O)[C@@H](O)[C@@H]1O [trifolirhizin]
[3]
  airway resistance in response to methacholine: significantly attenuated increased airway resistance
[1]; concentrations lower than 6.0 μg/ml, FIG. 6B
  acetylcholine-induced contraction: not at lower concentrations
[1]
  ASM contraction to acetylcholine: significantly inhibited acetylcholine-induced contraction
[1]; trifolirhizin 6.0 μg/ml with ICI 118,551 150 μM, 30 min preincubation, FIG. 6C
  effect of β2-AR antagonist ICI 118,551 on the compound's blockade of acetylcholine contraction: had no effect; also recorded: did not block the effect
[2]; 20 μg/ml, 10^-5 M acetylcholine pre-contraction, FIG. 7A
  maximal relaxation (of the initial contractile tone): 85%
[2]
  effect of co-incubation with β2-AR antagonist ICI 118,551 on relaxation: without effect
[2]; rings stimulated by 10^-5 M acetylcholine, FIG. 7A
  relaxation of pre-contracted tracheal rings, dose dependence: dose-dependent manner

Source: patent US10406191B2, “Compounds, extracts and methods from chinese medicinal herb sophora flavescens that inhibit airway contraction” (priority 2013, dated 2019)
